From ChEMBL document CHEMBL1201862, “PubChem BioAssay data set” (2004)
Activity calls are given as the source filed them.

Assays:
Format in all cases: functional
[1] = molecular target: Beta-2 adrenergic receptor (Homo sapiens, UniProt P07550); test: ADRB2 activation measured by internalization – cell-based, FAP fluorogen, flow cytometry, cherry pick 1, dose response (AID 588763)
Hexokinase HKDC1 = molecular target: T1, Hexokinase HKDC1 (Homo sapiens, UniProt Q2TB90); test: SAR analysis of small molecule inhibitors of hexokinase domain containing I (HKDC1). [Related pubchem assays (depositor defined):AID493160, AID493190]
T1 sequence (Q2TB90 whole entry): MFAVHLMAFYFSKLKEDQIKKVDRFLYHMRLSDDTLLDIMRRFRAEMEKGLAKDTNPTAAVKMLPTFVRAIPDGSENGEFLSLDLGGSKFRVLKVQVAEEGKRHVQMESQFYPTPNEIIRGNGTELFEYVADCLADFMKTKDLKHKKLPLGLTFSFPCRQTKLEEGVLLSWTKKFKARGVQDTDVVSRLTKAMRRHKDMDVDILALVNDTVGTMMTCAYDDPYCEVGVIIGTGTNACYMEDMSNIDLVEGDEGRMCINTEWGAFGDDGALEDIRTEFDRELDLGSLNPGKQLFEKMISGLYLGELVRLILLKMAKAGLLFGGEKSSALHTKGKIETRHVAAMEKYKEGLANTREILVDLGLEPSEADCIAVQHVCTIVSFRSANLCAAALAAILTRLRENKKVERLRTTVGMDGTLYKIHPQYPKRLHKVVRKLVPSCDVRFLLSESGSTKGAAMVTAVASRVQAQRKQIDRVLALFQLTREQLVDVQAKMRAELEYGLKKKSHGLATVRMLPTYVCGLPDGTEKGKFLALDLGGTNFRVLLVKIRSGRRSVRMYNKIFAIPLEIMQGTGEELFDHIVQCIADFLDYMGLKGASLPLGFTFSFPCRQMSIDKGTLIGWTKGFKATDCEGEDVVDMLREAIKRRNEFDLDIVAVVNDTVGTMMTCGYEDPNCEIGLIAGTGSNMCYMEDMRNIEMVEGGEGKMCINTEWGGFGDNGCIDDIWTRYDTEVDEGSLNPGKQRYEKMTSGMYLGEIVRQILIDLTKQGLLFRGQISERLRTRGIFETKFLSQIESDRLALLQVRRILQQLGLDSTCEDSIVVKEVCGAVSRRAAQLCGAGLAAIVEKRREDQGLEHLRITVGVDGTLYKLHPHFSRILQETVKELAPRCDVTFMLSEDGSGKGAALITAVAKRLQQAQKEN

Hexokinase-1 = molecular target: T2, Hexokinase-1 (Homo sapiens, UniProt P19367); test: SAR analysis of small molecule inhibitors of hexokinase domain containing I (HKDC1) in the hexokinase 1 selectivity assay. [Related pubchem assays (depositor defined):AID493160, AID493190]
T2 sequence (P19367 whole entry): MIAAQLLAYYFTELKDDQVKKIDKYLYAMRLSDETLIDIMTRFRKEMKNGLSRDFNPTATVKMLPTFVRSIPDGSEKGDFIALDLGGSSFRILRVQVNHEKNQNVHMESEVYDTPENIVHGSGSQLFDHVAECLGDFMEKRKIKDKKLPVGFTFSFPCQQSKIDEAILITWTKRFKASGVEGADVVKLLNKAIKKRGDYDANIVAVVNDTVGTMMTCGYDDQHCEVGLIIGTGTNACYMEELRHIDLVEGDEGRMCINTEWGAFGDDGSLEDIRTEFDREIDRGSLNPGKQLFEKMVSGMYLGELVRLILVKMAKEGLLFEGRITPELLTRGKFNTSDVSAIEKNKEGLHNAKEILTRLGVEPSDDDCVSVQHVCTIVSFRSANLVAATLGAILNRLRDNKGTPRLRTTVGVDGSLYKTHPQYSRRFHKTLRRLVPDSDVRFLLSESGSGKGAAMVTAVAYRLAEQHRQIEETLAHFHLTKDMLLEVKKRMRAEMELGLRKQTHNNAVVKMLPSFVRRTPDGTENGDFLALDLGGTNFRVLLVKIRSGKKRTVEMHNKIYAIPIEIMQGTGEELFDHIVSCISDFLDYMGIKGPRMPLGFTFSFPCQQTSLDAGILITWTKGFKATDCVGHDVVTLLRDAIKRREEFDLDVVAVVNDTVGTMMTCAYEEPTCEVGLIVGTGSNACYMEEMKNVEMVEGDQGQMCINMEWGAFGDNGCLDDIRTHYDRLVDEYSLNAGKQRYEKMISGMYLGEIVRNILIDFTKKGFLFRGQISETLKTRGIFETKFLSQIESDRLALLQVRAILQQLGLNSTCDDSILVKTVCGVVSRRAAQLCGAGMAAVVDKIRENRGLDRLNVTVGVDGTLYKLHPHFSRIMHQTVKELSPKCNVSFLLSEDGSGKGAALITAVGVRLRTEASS

[2] = molecular target: T3, Type-1 angiotensin II receptor (Homo sapiens, UniProt P30556); test: antagonism of angiotensin II type 1 receptor – cell-based, uHTS hits, selectivity assay for APJ receptor antagonist project, dose response (AID 463214);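 also: antagonist potency against angiotensin II stimulated AT1 response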
T3 sequence (P30556 whole entry): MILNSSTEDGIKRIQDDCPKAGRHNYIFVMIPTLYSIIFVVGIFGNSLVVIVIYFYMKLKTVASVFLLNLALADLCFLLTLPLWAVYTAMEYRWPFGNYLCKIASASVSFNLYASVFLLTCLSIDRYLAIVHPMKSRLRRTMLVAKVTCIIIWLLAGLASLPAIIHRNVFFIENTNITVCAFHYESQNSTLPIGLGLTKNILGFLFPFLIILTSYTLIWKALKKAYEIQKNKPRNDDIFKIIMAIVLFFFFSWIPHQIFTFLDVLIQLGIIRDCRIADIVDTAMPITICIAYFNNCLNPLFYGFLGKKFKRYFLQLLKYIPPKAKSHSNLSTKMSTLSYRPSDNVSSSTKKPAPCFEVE

Beta-galactosidase = Beta-galactosidase (Escherichia coli, UniProt Q8VNN2); test: PubChem AID 485352
Beta-galactosidase, sequence (Q8VNN2 whole entry): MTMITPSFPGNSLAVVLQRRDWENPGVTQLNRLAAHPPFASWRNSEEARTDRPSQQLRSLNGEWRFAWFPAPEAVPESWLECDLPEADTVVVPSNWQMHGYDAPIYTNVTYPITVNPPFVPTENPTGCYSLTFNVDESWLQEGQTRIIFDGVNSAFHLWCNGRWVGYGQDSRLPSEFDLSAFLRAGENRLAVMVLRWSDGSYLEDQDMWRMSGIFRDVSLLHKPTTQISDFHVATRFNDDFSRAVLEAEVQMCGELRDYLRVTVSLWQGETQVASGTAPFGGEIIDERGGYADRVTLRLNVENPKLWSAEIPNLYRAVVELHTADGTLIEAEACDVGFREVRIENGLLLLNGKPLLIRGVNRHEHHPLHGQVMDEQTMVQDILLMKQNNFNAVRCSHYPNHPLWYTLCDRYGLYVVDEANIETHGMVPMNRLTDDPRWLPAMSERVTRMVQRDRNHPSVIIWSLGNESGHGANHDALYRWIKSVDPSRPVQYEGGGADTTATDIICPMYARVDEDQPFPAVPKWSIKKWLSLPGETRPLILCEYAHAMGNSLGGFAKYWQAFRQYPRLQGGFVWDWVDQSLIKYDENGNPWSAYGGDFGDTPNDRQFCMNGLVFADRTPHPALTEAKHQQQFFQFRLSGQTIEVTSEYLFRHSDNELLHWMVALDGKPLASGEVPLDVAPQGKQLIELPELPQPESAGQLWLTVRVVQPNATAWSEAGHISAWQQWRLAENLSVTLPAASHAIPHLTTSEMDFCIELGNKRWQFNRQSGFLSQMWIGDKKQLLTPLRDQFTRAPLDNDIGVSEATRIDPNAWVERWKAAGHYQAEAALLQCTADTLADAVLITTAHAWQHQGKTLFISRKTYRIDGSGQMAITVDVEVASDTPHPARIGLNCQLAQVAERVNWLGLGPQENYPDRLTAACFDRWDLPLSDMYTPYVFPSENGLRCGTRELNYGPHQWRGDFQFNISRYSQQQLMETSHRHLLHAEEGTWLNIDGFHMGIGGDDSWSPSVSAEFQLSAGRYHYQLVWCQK

Beta-2 adrenergic receptor, sequence (P07550 whole entry, the tested form may be a part): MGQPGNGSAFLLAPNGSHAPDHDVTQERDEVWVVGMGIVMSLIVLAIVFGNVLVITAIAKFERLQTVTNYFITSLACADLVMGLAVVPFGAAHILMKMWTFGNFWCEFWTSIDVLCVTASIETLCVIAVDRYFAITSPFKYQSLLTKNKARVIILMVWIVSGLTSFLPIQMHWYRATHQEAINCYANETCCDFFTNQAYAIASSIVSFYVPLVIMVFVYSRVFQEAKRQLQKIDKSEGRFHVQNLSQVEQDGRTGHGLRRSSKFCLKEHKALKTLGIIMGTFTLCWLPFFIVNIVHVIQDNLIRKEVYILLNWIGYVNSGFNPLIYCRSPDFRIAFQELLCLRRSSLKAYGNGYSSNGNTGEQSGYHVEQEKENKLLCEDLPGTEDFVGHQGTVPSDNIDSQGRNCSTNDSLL

EC50 [1]	IC50 (Hexokinase HKDC1)	IC50 (Hexokinase-1)	IC50 [2]	EC50 (Beta-galactosidase)	Compound
12.5 µM (inactive)					CCSc1nc2ccccc2n1C(=O)c1ccc(S(=O)(=O)N2CCCCCC2)cc1
	> 80 µM (inactive)	> 80 µM (inactive)			COc1ccc(NC(=O)c2ccc(NC(=O)c3scnc3C)cc2)cc1
			23.2 µM (not active)	> 40 µM (inactive)	O=C(Cc1ccccc1)NCC(=O)OCC(=O)c1cccc([N+](=O)[O-])c1
	> 80 µM (inactive)	> 80 µM (inactive)			Cc1ccoc1C(=O)Nc1cccc(C(=O)Nc2cccc(C(F)(F)F)c2)c1
